The IC50 is the concentration that gives 50% inhibition.

Experiment [1] deals with PI3Kγ (p110γ) Recombinant Human Protein (Homo sapiens (Human), UniProt P48736). Description: PI3K-γ Scintillation Proximity Assay. Type of experiment: biochemical. The settings on record: read-out: PI3Kγ IC50. The method in brief:
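Recombinant human p110γ assayed at room temperature in 20 mM MOPS pH 6.7, 10 mM MgCl2, 5 mM DTT, 0.03% CHAPS, 2% DMSO, with 20 μM PIP2 and 2 μM ATP plus [γ-33P]ATP. Product captured on WGA SPA beads overnight and counted; IC50 fitted from % of solvent-control activity versus log inhibitor concentration.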
A general note: In a scintillation proximity assay essentially only radioactivity close to the scintillant gives light.

Experiment [2] has as its target PI3Kδ (p110δ/p85α) Recombinant Human Protein (Homo sapiens (Human), UniProt O00329). Description: PI3Kδ Scintillation Proximity Assay. Type of experiment: biochemical. In a few lines:
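Recombinant human p110δ/p85α (3.4 nM) phosphorylates 20 μM di-octanoyl PIP2 using 2 μM ATP spiked with [γ-33P]ATP, 120 min, room temperature, pH 6.7, 2% DMSO. Product measured by scintillation proximity; IC50 from dose-response fit.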

Experiment [3] has as its system Phosphorylated Ribosomal Protein S6 (RPS6). Description: THP-1 RPS6 ELISA Assay. Type of experiment: cell-based, Human. The conditions noted are these: THP-1 cells, read-out: PI3Kγ_THP1_RPS6_ELISA IC50. The method in brief: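 Serum-starved THP-1 cells were preincubated with a concentration range of compound for 2 h at 37 °C, then stimulated with 10 nM MCP-1 for 15 min. Phospho-RPS6 in lysates was quantified by ELISA at 450 nm. IC50 came from percent inhibition versus log inhibitor concentration.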
In general terms: An ELISA detects its analyte on a solid surface through an enzyme-linked reagent.

Structures can show the parent of a compound that is named as a salt. Where two headings read alike, the source gives them in different places.

PI3Kδ (p110δ/p85α) Recombinant Human Protein, sequence (O00329 whole entry): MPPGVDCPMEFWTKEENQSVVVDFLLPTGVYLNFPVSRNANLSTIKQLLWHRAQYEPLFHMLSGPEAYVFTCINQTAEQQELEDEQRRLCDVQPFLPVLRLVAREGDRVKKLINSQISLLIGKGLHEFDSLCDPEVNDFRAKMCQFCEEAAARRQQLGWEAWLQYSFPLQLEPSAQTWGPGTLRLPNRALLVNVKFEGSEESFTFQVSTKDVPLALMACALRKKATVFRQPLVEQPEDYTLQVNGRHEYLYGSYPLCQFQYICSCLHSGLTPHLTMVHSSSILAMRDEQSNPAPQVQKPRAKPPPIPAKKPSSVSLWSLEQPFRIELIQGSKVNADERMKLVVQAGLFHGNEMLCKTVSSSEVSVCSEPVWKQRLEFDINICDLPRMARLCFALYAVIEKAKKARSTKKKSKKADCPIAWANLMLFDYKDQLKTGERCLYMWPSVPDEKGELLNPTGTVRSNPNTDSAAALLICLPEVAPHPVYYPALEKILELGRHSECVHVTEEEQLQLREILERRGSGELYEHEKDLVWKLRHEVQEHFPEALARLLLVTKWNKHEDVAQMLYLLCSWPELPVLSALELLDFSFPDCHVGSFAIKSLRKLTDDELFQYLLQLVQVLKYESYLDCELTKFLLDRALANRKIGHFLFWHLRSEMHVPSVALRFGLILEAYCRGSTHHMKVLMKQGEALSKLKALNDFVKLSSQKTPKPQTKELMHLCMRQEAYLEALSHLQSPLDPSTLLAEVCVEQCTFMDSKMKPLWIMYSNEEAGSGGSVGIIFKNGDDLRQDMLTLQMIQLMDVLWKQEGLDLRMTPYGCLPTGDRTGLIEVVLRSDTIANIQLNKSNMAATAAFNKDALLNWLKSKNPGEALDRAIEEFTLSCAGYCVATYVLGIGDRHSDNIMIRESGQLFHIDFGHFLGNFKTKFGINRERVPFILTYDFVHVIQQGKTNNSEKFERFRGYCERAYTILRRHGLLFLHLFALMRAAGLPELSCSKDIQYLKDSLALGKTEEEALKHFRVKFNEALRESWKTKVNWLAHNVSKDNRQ
PI3Kδ (p110δ/p85α) Recombinant Human Protein, sequence (P27986 whole entry partner): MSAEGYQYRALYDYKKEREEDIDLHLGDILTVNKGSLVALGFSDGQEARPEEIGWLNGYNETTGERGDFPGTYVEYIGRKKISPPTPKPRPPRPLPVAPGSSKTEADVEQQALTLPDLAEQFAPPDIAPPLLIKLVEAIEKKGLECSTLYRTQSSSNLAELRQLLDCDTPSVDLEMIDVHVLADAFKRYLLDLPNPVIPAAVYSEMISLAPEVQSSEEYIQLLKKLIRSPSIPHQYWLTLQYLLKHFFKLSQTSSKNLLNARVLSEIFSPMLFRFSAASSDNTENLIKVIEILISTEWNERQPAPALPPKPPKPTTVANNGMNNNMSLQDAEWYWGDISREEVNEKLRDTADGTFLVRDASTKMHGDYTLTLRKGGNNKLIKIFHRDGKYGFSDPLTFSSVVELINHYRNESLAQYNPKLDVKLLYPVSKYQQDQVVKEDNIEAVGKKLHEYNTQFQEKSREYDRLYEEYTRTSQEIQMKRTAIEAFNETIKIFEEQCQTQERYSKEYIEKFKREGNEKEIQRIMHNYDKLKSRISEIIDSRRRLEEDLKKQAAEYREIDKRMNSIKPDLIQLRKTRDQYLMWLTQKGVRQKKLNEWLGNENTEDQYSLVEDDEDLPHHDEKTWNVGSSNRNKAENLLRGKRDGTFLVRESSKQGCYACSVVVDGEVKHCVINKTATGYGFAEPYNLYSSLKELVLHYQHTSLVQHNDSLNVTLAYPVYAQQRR
PI3Kγ (p110γ) Recombinant Human Protein, sequence (P48736 whole entry): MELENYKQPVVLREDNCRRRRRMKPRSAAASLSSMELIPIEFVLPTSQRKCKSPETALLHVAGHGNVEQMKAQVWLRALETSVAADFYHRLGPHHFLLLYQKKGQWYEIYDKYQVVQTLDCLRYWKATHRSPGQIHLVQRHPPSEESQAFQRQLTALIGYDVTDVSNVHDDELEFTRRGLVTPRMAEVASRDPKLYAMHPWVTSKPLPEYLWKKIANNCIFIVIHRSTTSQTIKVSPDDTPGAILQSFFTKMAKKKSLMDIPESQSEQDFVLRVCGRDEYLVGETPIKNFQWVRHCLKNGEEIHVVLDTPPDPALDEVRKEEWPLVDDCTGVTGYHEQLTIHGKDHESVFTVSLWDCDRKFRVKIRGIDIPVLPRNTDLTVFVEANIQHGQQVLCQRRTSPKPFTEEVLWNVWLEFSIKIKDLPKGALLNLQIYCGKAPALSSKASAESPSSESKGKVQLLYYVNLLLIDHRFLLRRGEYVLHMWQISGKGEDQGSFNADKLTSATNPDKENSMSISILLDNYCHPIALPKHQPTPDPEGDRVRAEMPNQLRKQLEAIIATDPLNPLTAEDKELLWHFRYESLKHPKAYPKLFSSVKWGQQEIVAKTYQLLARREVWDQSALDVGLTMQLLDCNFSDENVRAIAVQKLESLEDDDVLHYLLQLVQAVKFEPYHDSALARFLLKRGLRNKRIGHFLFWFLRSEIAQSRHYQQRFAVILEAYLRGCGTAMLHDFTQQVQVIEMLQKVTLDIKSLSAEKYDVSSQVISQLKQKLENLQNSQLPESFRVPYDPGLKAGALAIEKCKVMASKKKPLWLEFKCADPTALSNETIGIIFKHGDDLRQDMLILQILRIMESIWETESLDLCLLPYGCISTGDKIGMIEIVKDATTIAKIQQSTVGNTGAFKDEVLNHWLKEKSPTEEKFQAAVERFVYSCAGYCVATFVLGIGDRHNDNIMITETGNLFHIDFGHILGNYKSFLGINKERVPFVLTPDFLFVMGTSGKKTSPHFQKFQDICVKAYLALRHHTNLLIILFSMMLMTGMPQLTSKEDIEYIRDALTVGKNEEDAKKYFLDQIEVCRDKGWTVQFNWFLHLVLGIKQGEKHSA

In the case of `Cc1ccc(S(=O)(=O)NC23CCC(C#N)(CC2)C3)cc1-c1cnc2c(N)ncnn12` [Example 90, 3-(4-Aminoimidazo[1,2-f][1,2,4]triazin-7-yl)-N-(4-cyanobicyclo[2.2.1]heptan-1-yl)-4-methylbenzenesulfonamide trifluoroacetate salt], the IC50 in experiment [1] was less than 0.1 µM; in experiment [2], 0.1 to 0.5 µM; in experiment [3], less than 0.1 µM.
With `Cc1ccccc1-c1cn2c(-c3cc(S(=O)(=O)N[C@H]4CC[C@H](O)CC4)ccc3C)cnc2c(N)n1` [Example 17, 3-[8-Amino-6-(2-methylphenyl)imidazo[1,2-a]pyrazin-3-yl]-N-(trans-4-hydroxycyclohexyl)-4-methylbenzenesulfonamide], the IC50 in experiment [1] is less than 0.1 µM; in experiment [2], 0.1 to 0.5 µM; in experiment [3] (Homo sapiens), 0.1 to 0.5 µM.
Regarding `[2H]C([2H])([2H])c1ccc(S(=O)(=O)N(C)C23CCC(C#N)(C2)C3)cc1-c1cnc2c(N)ncnn12` [Example 261, 3-(4-Aminoimidazo[2,1-f][1,2,4]triazin-7-yl)-N-(4-cyanobicyclo[2.1.1]hexan-1-yl)-N-methyl-4-(methyl-d3)benzenesulfonamide], the values for the IC50 in experiment [1], in experiment [2] and in experiment [3] (Homo sapiens) were less than 0.1 µM, 0.5 to 2 µM and less than 0.1 µM, respectively.
Regarding `Cc1ccc(S(=O)(=O)N[C@H]2CC[C@H](O)CC2)cc1-c1cnc2c(N)nc(-c3ccncc3F)cn12` [Example 81, 3-[8-Amino-6-(3-fluoropyridin-4-yl)imidazo[1,2-a]pyrazin-3-yl]-N-(trans-4-hydroxycyclohexyl)-4-methylbenzenesulfonamide], the IC50 in experiment [1], in experiment [2] and in experiment [3] (Homo sapiens) was less than 0.1 µM each time.
With `Cc1ccc(S(=O)(=O)NC23CCC(O)(CC2)CC3)cc1-c1cnc2c(N)ncnn12` [Example 185, 3-(4-aminoimidazo[2,1-f][1,2,4]triazin-7-yl)-N-(4-hydroxybicyclo[2.2.2]octan-1-yl)-4-methylbenzenesulfonamide], the IC50 in experiment [1] was less than 0.1 µM; in experiment [2], 0.1 to 0.5 µM; in experiment [3] (Homo sapiens), 0.1 to 0.5 µM.
As to `Cc1ccc(S(=O)(=O)N[C@H]2CC[C@H](O)CC2)cc1-c1cnc2c(N)nc(-c3ccc(C(C)O)cc3F)cn12` (stereo partly drawn) [Example 82, 3-(8-Amino-6-(2-fluoro-4-(1-hydroxyethyl)phenyl)imidazo[1,2-a]pyrazin-3-yl)-N-(trans-4-hydroxycyclohexyl)-4-methylbenzenesulfonamide], the IC50 in experiment [1], in experiment [2] and in experiment [3] (Homo sapiens) was less than 0.1 µM in each case.
Regarding `Cc1ccc(S(=O)(=O)N[C@H]2CC[C@H](O)CC2)cc1-c1cnc2c(N)cc(-c3ccnn3C)cn12` [Example 10, 3-[8-Amino-6-(1-methyl-1H-pyrazol-5-yl)imidazo[1,2-a]pyridin-3-yl]-N-(trans-4-hydroxycyclohexyl)-4-methylbenzenesulfonamide bis(trifluoroacetate)], the results for the IC50 in experiment [1], in experiment [2] and in experiment [3] (Homo sapiens) were less than 0.1 µM, 0.1 to 0.5 µM and greater than 1 µM, respectively.
For `Cc1ccc(S(=O)(=O)N[C@H]2CC[C@H](O)CC2)cc1-c1cnc2c(N)c(-c3cnn(C)c3)ccn12` [Example 12, 3-[8-Amino-7-(1-methyl-1H-pyrazol-4-yl)imidazo[1,2-a]pyridin-3-yl]-N-(trans-4-hydroxycyclohexyl)-4-methylbenzenesulfonamide], in that order: less than 0.1 µM, 0.1 to 0.5 µM and 0.1 to 0.5 µM.
Regarding `Cc1ccc(S(=O)(=O)N(CCC#N)C2CCCCC2)cc1-c1cnc2c(N)nc(C(F)(F)F)cn12` [Example 301, 3-(8-amino-6-(trifluoromethyl)imidazo[1,2-a]pyrazin-3-yl)-N-(2-cyanoethyl)-N-cyclohexyl-4-methylbenzenesulfonamide], the IC50 in experiment [1] is less than 0.1 µM; in experiment [2], 0.5 to 2 µM; in experiment [3] (Homo sapiens) it was 0.1 to 0.5 µM.
For the molecule `Cc1ccc(S(=O)(=O)N2CC(O)(C3CC3)C2)cc1-c1cnc2c(N)nc(C(F)(F)F)nn12` [Example 342, 1-((3-(4-amino-2-(trifluoromethyl)imidazo[2,1-1,2,4]triazin-7-yl)-4-methylphenyl)sulfonyl)-3-cyclopropylazetidin-3-ol TFA], the IC50 in experiment [1] is less than 0.1 µM; in experiment [2], 0.1 to 0.5 µM; in experiment [3] it was 0.1 to 0.5 µM.
As to `Cc1ccc(S(=O)(=O)NCC2(CO)CCOCC2)cc1-c1cnc2c(N)nc(C(F)(F)F)nn12` [Example 334, 3-(4-Amino-2-(trifluoromethyl)imidazo[1,2-f][1,2,4]triazin-7-yl)-N-((4-(hydroxymethyptetrahydro-2H-pyran-4-yl)methyl)-4-methylbenzenesulfonamide trifluoroacetate salt], the IC50 is less than 0.1 µM in experiment [1], 0.1 to 0.5 µM in experiment [2] and less than 0.1 µM in experiment [3].
`Cc1ccc(S(=O)(=O)NC23CCC(c4nccn4C)(CC2)OC3)cc1-c1cnc2c(N)ncnn12` [Example 439, 3-(4-Aminoimidazo[1,2-f][1,2,4]triazin-7-yl)-4-methyl-N-(1-(1-methyl-1H-imidazol-2-yl)-2-oxabicyclo[2.2.2]octan-4-yl)benzenesulfonamide trifluoroacetate salt]: the values for the IC50 in experiment [1], in experiment [2] and in experiment [3] (Homo sapiens) were less than 0.1 µM, 0.5 to 2 µM and 0.5 to 1 µM, respectively.
For `Cc1ccc(S(=O)(=O)NCC2CCN(C(=O)C3CC3)CC2)cc1-c1cnc2c(N)nccn12` [Example 86, 3-(8-aminoimidazo[1,2-a]pyrazin-3-yl)-N-((1-(cyclopropanecarbonyl)piperidin-4-yl)methyl)-4-methylbenzenesulfonamide], the IC50 in experiment [1] is less than 0.1 µM; in experiment [2] it was 0.5 to 2 µM; in experiment [3], greater than 1 µM.
The like results for `C[C@]1(O)CC[C@H](NS(=O)(=O)c2cc(-c3cnc4c(N)nc(-c5ccc(CO)cc5F)cn34)ccc2F)CC1` [Example 423, 5-(8-amino-6-(2-fluoro-4-(hydroxymethyl)phenyl)imidazo[1,2-a]pyrazin-3-yl)-2-fluoro-N-((1r,4r)-4-hydroxy-4-methylcyclohexyl)benzenesulfonamide] were, in that order, less than 0.1 µM, less than 0.1 µM and less than 0.1 µM.
Take `Cc1ccc(S(=O)(=O)N(C)[C@H]2CC[C@H](O)CC2)cc1-c1cnc2c(N)ncnn12` [Example 69, 3-(4-Aminoimidazo[2,1-f][1,2,4]triazin-7-yl)-N-(trans-4-hydroxycyclohexyl)-N,4-dimethylbenzenesulfonamide]: the IC50 in experiment [1] is less than 0.1 µM; in experiment [2], 0.5 to 2 µM; in experiment [3] (Homo sapiens), 0.1 to 0.5 µM.
In the case of `Cc1ncc(-c2cn3c(-c4cc(S(=O)(=O)N[C@H]5CC[C@H](O)CC5)ccc4C)cnc3c(N)n2)s1` [Example 35, 3-[8-Amino-6-(2-methylthiazol-5-yl)imidazo[1,2-a]pyrazin-3-yl]-N-(trans-4-hydroxycyclohexyl)-4-methylbenzenesulfonamide], the figures for the IC50 in experiment [1], in experiment [2] and in experiment [3] (Homo sapiens) were less than 0.1 µM, 0.1 to 0.5 µM and less than 0.1 µM, respectively.
Consider `[2H]C([2H])([2H])c1ccc(S(=O)(=O)NC23CC(CC#N)(C2)C3)cc1-c1cnc2c(N)ncnn12` [Example 371, trifluoroacetate salt], for which the IC50 in experiment [1] is less than 0.1 µM; in experiment [2], 0.1 to 0.5 µM; in experiment [3] (Homo sapiens) it was 0.1 to 0.5 µM.
In the case of `Cc1ccc(S(=O)(=O)NCC2(F)CCOCC2)cc1-c1cnc2c(N)ncnn12` [Example 134, 3-(4-aminoimidazo[2,1-f][1,2,4]triazin-7-yl)-N-((4-fluorotetrahydro-2H-pyran-4-yl)methyl)-4-methylbenzenesulfonamide], the IC50 in experiment [1] is less than 0.1 µM; in experiment [2], 0.5 to 2 µM; in experiment [3] (Homo sapiens) it was 0.1 to 0.5 µM.
Turning to `Cc1ccc(S(=O)(=O)NC23CC(c4nnn[nH]4)(C2)C3)cc1-c1cnc2c(N)ncnn12` [Example 99, N-(3-(1H-tetrazol-5-yl)bicyclo[1.1.1]pentan-1-yl)-3-(4-aminoimidazo[1,2-f][1,2,4]triazin-7-yl)-4-methylbenzenesulfonamide trifluoroacetate salt], the IC50 is less than 0.1 µM in experiment [1], 0.5 to 2 µM in experiment [2] and greater than 1 µM in experiment [3].
In the case of `Cc1ccc(S(=O)(=O)N2C[C@@H]3CCO[C@@H]3C2)cc1-c1cnc2c(N)ncnn12` (relative stereo) [Example 211, 7-(5-((cis-Hexahydro-5H-furo[2,3-c]pyrrol-5-yl)sulfonyl)-2-methylphenyl)imidazo[2,1-f][1,2,4]triazin-4-amine], the IC50 in experiment [1] was less than 0.1 µM; in experiment [2] it was 0.5 to 2 µM; in experiment [3] (Homo sapiens), 0.5 to 1 µM.
The like results for `Cc1ccc(S(=O)(=O)N[C@H]2CC[C@H](O)CC2)cc1-c1cnc2c(N)nc(-c3ccc(C(=O)N(C)C)cc3F)cn12` [Example 79, 4-[8-Amino-3-(5-{[(trans-4-hydroxycyclohexyl)amino]sulfonyl}-2-methylphenyl)imidazo[1,2-a]pyrazin-6-yl]-3-fluoro-N,N-dimethylbenzamide trifluoroacetate] were, in that order, less than 0.1 µM, less than 0.1 µM and 0.1 to 0.5 µM.

Values taken from patent US10479795B2 (Incyte Corporation, priority 2016, dated 2019).
